Measurements reported in ChEMBL document CHEMBL4706557, “Synthesis and in vitro and in vivo biological evaluation of novel derivatives of flexicaulin A as antiproliferative agents” (Eur J Med Chem, 2020).
Activity calls are given as the source filed them. The rule behind the calls is not given here.

How the values were obtained:
ECa-109 cell line [1] = assay: Induction of apoptosis in human EC109 cells assessed as change in phosphorylated MKK4 expression at 3 uM incubated for 24 hrs in presence of N-acetylcysteine by Western blot analysis; format: functional, cell-based
ECa-109 cell line [2] = assay: Induction of apoptosis in human EC109 cells assessed as increase in BimS expression after 24 hrs by Western blot analysis; format: functional, cell-based
ECa-109 cell line [3] = assay: Induction of apoptosis in human EC-109 cells xenografted in BALB/c mouse assessed as increase in Bax/Bcl-2 ratio in tumor tissue at 20 to 40 mg/kg, ip QD for 14 days by Western blotting analysis relative to control; format: functional, organism-based; conditions: dose 20-40 mg/kg, time 14.0 day
ECa-109 cell line [4] = assay: Induction of apoptosis in human EC109 cells assessed as increase in phosphorylated ASK1 expression incubated for 24 hrs by Western blot analysis; format: functional, cell-based
ECa-109 cell line [5] = assay: Antiproliferative activity against human EC109 cells assessed as inhibition of cell growth at 0.06 to 4 uM preincubated with N-acetylcysteine for 4 hrs followed by compound addition and measured after 24 hrs by SRB assay; format: functional, cell-based; conditions: dose 0.06-4 µM
ECa-109 cell line [6] = assay: Induction of morphological changes in human EC109 cells assessed as decrease in number of cells in presence of N-acetylcysteine; format: functional, cell-based
ECa-109 cell line [7] = assay: Induction of apoptosis in human EC-109 cells xenografted in BALB/c mouse assessed as increase in phosphorylated MKK4 in tumor tissue at 20 to 40 mg/kg, ip QD for 14 days by Western blotting analysis; format: functional, organism-based; conditions: dose 20-40 mg/kg, time 14.0 day
[8] = Toxicity in BALB/c mouse assessed as MCV at 40 mg/kg, ip administered once daily for 14 days (reference value: 49.90 +/- 0.37 fL); format: organism-based; conditions: in vivo, 336 h, time 14 day
ECa-109 cell line [9] = assay: Induction of apoptosis in human EC-109 cells assessed as apoptotic rate at 0.75 uM after 48 hrs by Annexin V-FITC/propidium iodide staining based flow cytometry (reference value: 3.2 %); format: functional
ECa-109 cell line [10] = assay: Induction of apoptosis in human EC109 cells assessed as reduction in Bcl-2 expression at 3 uM incubated for 24 hrs in presence of N-acetylcysteine by Western blot analysis; format: functional, cell-based
[11] = Toxicity in BALB/c mouse assessed as PLT at 20 mg/kg, ip administered once daily for 14 days (reference value: 788.60 +/- 71.35 10^9/L); format: organism-based; conditions: in vivo, 336 h, time 14 day
[12] = Toxicity in BALB/c mouse assessed as abnormalities in heart at 20 to 40 mg/kg, ip administered once daily for 14 days by HE staining based assay; format: organism-based; conditions: in vivo, 336 h, dose 20-40 mg/kg, time 14 day
ECa-109 cell line [13] = assay: Induction of apoptosis in human EC-109 cells xenografted in BALB/c mouse assessed as increase in phosphorylated ASK1 in tumor tissue at 20 to 40 mg/kg, ip QD for 14 days by Western blotting analysis; format: functional, organism-based; conditions: dose 20-40 mg/kg, time 14.0 day
[14] = Toxicity in BALB/c mouse assessed as HGB at 40 mg/kg, ip administered once daily for 14 days (reference value: 153.20 +/- 3.87 g/L); format: organism-based; conditions: in vivo, 336 h, time 14 day
GES1 [15] = assay: Cytotoxicity against human GES1 cells assessed as reduction in survival rate at 0 to 8 uM by SRB assay; format: cell-based; conditions: ges1, 8 µM, TDE = time-dependent effect, dose 0-8 µM
ECa-109 cell line [16] = assay: Induction of apoptosis in human EC-109 cells assessed as apoptotic rate at 3 uM after 48 hrs by Annexin V-FITC/propidium iodide staining based flow cytometry (reference value: 3.2 %); format: functional
GES1 [17] = assay: Cytotoxicity against human GES1 cells assessed as inhibition of cell growth incubated for 72 hrs by SRB assay; format: cell-based; conditions: GES1, 72 h
GES1 [18] = assay: Cytotoxicity against human GES1 cells assessed as reduction in survival rate after 24 to 72 hrs by SRB assay; format: cell-based; conditions: time 24-72 hrs
ECa-109 cell line [19] = assay: Induction of apoptosis in human EC109 cells assessed as increase in cleaved caspase 3 expression after 24 hrs by Western blot analysis; format: functional, cell-based
ECa-109 cell line [20] = assay: Induction of mitochondrial depolarization in human EC-109 cells assessed as depolarized cell population at 3 uM measured after 24 hrs by JC1 dye based flow cytometry (reference value: 4.2 %); format: functional
ECa-109 cell line [21] = assay: Induction of mitochondrial depolarization in human EC-109 cells assessed as depolarized cell population at 1.5 uM measured after 24 hrs by JC1 dye based flow cytometry (reference value: 4.2 %); format: functional
[22] = Toxicity in BALB/c mouse assessed as effect on glomeruli in kidney at 20 to 40 mg/kg, ip administered once daily for 14 days by HE staining based assay; format: organism-based; conditions: in vivo, 336 h, dose 20-40 mg/kg, time 14 day
ECa-109 cell line [23] = assay: Antiproliferative activity against human EC109 cells assessed as inhibition of cell growth incubated for 72 hrs by SRB assay; format: functional, cell-based; conditions: ECa-109, 72 h
ECa-109 cell line [24] = assay: Induction of morphological changes in human EC109 cells assessed as appearance of contracted and rounded cells in presence of N-acetylcysteine; format: functional, cell-based
[25] = Toxicity in BALB/c mouse assessed as HCT at 20 mg/kg, ip administered once daily for 14 days (reference value: 49.08 +/- 1.56 %); format: organism-based; conditions: in vivo, 336 h, time 14 day
ECa-109 cell line [26] = assay: Induction of apoptosis in human EC109 cells assessed as change in phosphorylated JNK expression at 3 uM incubated for 24 hrs in presence of N-acetylcysteine by Western blot analysis; format: functional, cell-based
[27] = Toxicity in BALB/c mouse assessed as abnormalities in lungs at 20 to 40 mg/kg, ip administered once daily for 14 days by HE staining based assay; format: organism-based; conditions: in vivo, 336 h, dose 20-40 mg/kg, time 14 day

With `C=C1C(=O)[C@@]23[C@H](O)C[C@@H]4C(C)(C)CCC[C@@]4(COC(C)=O)[C@@H]2[C@@H](O)C[C@H]1[C@H]3OC(=O)c1ccc(CCl)cc1` the Activity (ECa-109 cell line [1]) was “inactive”, the Activity (ECa-109 cell line [2]) was “Dose-dependent effect” and the Activity (ECa-109 cell line [3]) was “Active”. For the same compound, the Activity (ECa-109 cell line [4]) was “Dose-dependent effect”, the inhibition (ECa-109 cell line [5]) was “inactive” and the Activity (ECa-109 cell line [6]) was “inactive”. For the same compound, the Activity (ECa-109 cell line [7]) was “Active”, the Activity [8] was 49.36 fL and the Activity (ECa-109 cell line [9]) was 78.9%. For the same compound, the Activity (ECa-109 cell line [10]) was “inactive”, the Activity [11] was 754.8 10^9/L and the Activity [12] was “Non-Toxic”. For the same compound, the Activity (ECa-109 cell line [13]) was “Active”, the Activity [14] was 144.4 g/L and the “inhibition (INH)” value (GES1 [15]) was “Tde”. The Activity (ECa-109 cell line [16]) was 97%, the IC50 (GES1 [17]) was 520 nM and the “inhibition (INH)” value (GES1 [18]) was “Dose-dependent effect”. For the same compound, the Activity (ECa-109 cell line [19]) was “Dose-dependent effect”, the Activity (ECa-109 cell line [20]) was 70.7% and the Activity (ECa-109 cell line [21]) was 47.1%. For the same compound, the Activity [22] was “Non-Toxic”, the IC50 (ECa-109 cell line [23]) was 130 nM and the Activity (ECa-109 cell line [24]) was “inactive”. The Activity [25] was 46.67%, the Activity (ECa-109 cell line [26]) was “inactive” and the Activity [27] was “Non-Toxic”.
